Laboratory results as given in a melting point compilation (Tetko et al.; mined from patent text by program, amines drawn as free bases though some values may be those of a salt).

SMILES | melting point
Nc1ccccc1-c1ccc(CCCC(=O)O)cc1 | 123 to 126 °C
O=C(NC[C@H]1CN(c2ccc(N3CCCC3=O)cc2)C(=O)O1)c1ccc(Cl)s1 | 229 °C
COc1cc2c(cc1OCCN(C)C)N(C(=O)c1ccc(-c3ccc(-c4noc(C)n4)cc3C)cc1)CCC2 | 139 to 141 °C
COC(=O)C(O)C(O)C(O)C(O)C(=O)OC (stereo not drawn) | 90.2 to 90.7 °C
CC(C)c1cccc(C(C)C)c1NC(=O)CN1CCN(CCCSc2nc3ccccc3o2)CC1 | 123 to 125 °C
CC(=O)N1C(C)(C)CN(CCN2CC(C)(C)N(C(C)=O)C(C)(C)C2=O)C(=O)C1(C)C | 180 to 183 °C
CS(=O)(=O)c1ccc(C[C@H](CO)NC(=O)OCc2ccccc2)cc1 | 110 to 112 °C
O=C(Oc1ccc([N+](=O)[O-])cc1)Oc1ccc2oc3ccccc3c2c1 | 183 to 185 °C
COc1ccc2c(c1)c1c3c(c(-c4ccccc4Cl)cc1n2CCCO)C(=O)NC3=O | 228 to 230 °C
Nc1cccc(-c2nc3n(n2)Cc2ccccc2-3)c1 | 163 to 164 °C
Cn1cc(-c2cccc(N3Cc4cc(C5CC5)sc4C3=O)c2CO)cc(Nc2ccncn2)c1=O | 140 to 141 °C
COc1ccc2c(=O)c(CSC)cn(C)c2c1 | 135 to 136 °C
COC(=O)c1cnc(C(=O)OC)c(Cl)c1 | 36 to 38 °C
CCCCc1nc2c(N)nc3cccnc3c2s1 | 136 to 138 °C
CNc1ccc(C(O)(C(F)(F)Cl)C(F)(F)Cl)cc1 | 92 to 94 °C
CSc1ccc(C(O)C#CC2(O)CCCC2)cc1 (stereo not drawn) | 118 to 120 °C
N#CCc1cccc2c(-c3ccc(F)cc3)nccc12 | 136 °C
CCOC(=O)/C(=C/c1conc1-c1ccc(OC)cc1OCc1ccccc1C(=O)OC)Cc1cc2c(cc1OC)OCO2 | 135 to 137 °C
COc1ccc(S(=O)(=O)Nc2c(Cl)cncc2Cl)c2c1oc1ccccc12 | 242 to 244 °C
CC(=O)C1(O)CCC2C3C=C(Cl)C4=CC(=O)OCC4(C)C3CCC21C (stereo not drawn) | 218 to 221 °C
O=C(Cn1cncn1)c1cccc2ccccc12 | 130 °C
Cc1cccc(-n2c(-c3cc(-c4ccncc4)c(N4CCOCC4)s3)nc3ccccc3c2=O)c1 | 230 to 232 °C
CN(C)NC(=O)c1ccc(-c2ccc(Cl)cc2)o1 | 150 to 152 °C
C=C=COc1ccccc1S(=O)(=O)NC(=O)Nc1nc(C)nc(OC)n1 | 150 to 151 °C
Cn1c(-c2ccccc2)nc2cnc3ccccc3c21 | 168 to 170 °C
CCCCOc1ccc(Nc2cc(Nc3ccc4c(c3)OCCO4)ncc2F)cc1 | 150 to 151 °C

SMILES | melting point
Cc1cc(-n2c(C)nc3ccccc32)cc2c1NC(=O)CC2C (stereo not drawn) | 248 to 252 °C
CC12CCC3C4CCC(=O)C=C4CCC3C1CCC2C(F)F (stereo not drawn) | 102 to 103 °C
O=C1NC(=O)c2c1c(-c1ccccc1Cl)cc1c2c(Br)cn1CCCO | 121 to 123 °C
NCCCC=CCCC(=O)O | 139 to 144 °C
OCc1cc(Cl)c(O)cc1F | 125 to 127 °C
COC(=O)NC1CCN(c2nc(N3CCOCC3)c3ncnc(N(C)Cc4ccccc4)c3n2)CC1 | 110 °C
CC1Oc2c(Cc3ccccc3)cc(CN3CCN(c4ccc(C(=O)NC5CC5)cc4)CC3)cc2NC1=O (stereo not drawn) | 192 to 203 °C
COc1ccc(-c2nc3ccc(OC)cc3c(Br)c2Cl)cc1 | 184 to 185 °C
CONC(=O)c1ccc(CC(C)(C)C=O)cc1 | 126 to 128 °C
[N-]=[N+]=NCC(=O)N1CC(c2ccccc2)c2ccccc21 (stereo not drawn) | 72 to 73 °C
COc1cccc([C@]23CCN(C)C(=O)[C@@H]2CCC(=O)C3)c1 (relative stereo) | 156 to 158 °C
CNC(=O)COc1cc(C)ccc1O | 163 to 165 °C
COC(=O)CC1=C(C)Cc2ccc(SC)cc21 | 200 to 210 °C
CN(C)c1c(S(=O)(=O)C(F)(F)F)c(C#N)nn1-c1c(Cl)cc(C(F)(F)F)cc1Cl | 178 to 179 °C
CN(C)c1nc(N)nc2c1sc(=O)n2C1OC(CO)C(O)C1O (stereo not drawn) | > 112 °C
COC(=O)c1cccc(-c2nc(-c3ccc(C(F)(F)F)cc3)co2)c1 | 151 to 152 °C
OC(CCSC(=S)Nc1ccc(Cl)cn1)c1ccc(F)cc1 (stereo not drawn) | 86 °C
CC(=O)c1cc(C)cc(C)c1NC(=O)c1sccc1S(=O)(=O)Nc1onc(C)c1C | 158 to 160 °C
C=C(C)C(=O)OCc1ccc(SC)cc1 | 41 °C
CSCC(C)(C)NC(=O)c1c(I)cccc1C(=O)Nc1ccc(C(C)n2ccc(C(F)(F)F)n2)cc1C (stereo not drawn) | 79 to 86 °C
CCCn1c(=O)c2[nH]c(C3(N)CCCCC3)nc2n(CCC)c1=O | 172 to 173 °C
O=c1ccoc2cc(OCCn3ccnc3)ccc12 | 131 to 133 °C
CCCCC(CC)Cn1c(C)cc(C)c(C(=O)O)c1=O (stereo not drawn) | 89 to 91 °C
C#CCOc1ccc2c(c1)c(-c1ccc(C(C)C)cc1)nc(=O)n2Cc1cccc(N2CCCC2=O)c1 | 68 to 69 °C
COC(=O)NC(=O)Nc1nc2c(Cl)cccc2s1 | 319 to 320 °C

The remaining lines, values ahead:

melting point | SMILES
64.5 to 65 °C | FC(F)(F)c1[nH]c(-c2ccc(Cl)cc2)c(Br)c1C(F)(F)F
50.5 to 51 °C | Cc1nc(-c2cc(C)c(OCCCc3cc(C4CC4)no3)c(C)c2)no1
151 °C | CCOC(=O)NN(C)C(=S)Nc1ccc(Cl)cc1F
174 to 175 °C | CCC(C)NC(=O)C1=C(C(=O)Nc2cc(OC3CCCC3)c(Cl)cc2F)CCCC1 (stereo not drawn)
132 to 133 °C | CC(F)(F)c1cccc(C[C@@H](C(=O)O)[C@@H](O)c2ccc(F)cc2)c1 (racemic)
215 to 217 °C | CCCc1nc2ccc(N(C)C)nn2c1S(N)(=O)=O
139 to 140 °C | COC(=O)c1cccc(-c2cc(-c3ccc(C(F)(F)F)cc3)on2)c1
248 to 250 °C | Oc1ccc2c(c1)CC(n1cc[nH]c1=S)CC2 (stereo not drawn)
314 to 318 °C | CSc1nc2[nH]c3c(c(=O)n2n1)SCCC3
96 to 98 °C | COc1ccc(/C=C(\C#N)c2ccccc2C(F)(F)F)cc1OC1CCCC1
166 to 168 °C | Cc1ccc(C(=O)C(O)[C@H]2OC[C@@H](n3cc(I)c(=O)n(C(=O)c4ccc(C)cc4)c3=O)O2)cc1 (stereo partly drawn)
82 to 84 °C | CO/C=C(/C(=O)OC)c1csc(C(=O)c2ccccc2)c1
130 to 133 °C | C[C@]1(CN)COc2cccc(-c3ccccc3)c2O1
190 to 192 °C | O=C(c1ccccc1)N1CCN(c2ccccc2)CCN1C(=O)c1ccccc1
83 to 84 °C | CC(=O)c1ccc(OCCCBr)c(Br)c1
140 °C | Clc1ccc(-c2cc(OCCCN3CCCCC3)[nH]n2)cc1
173 to 175 °C | CCN(C(=O)Cn1c(=O)n(C)c2nc(-c3ccccc3)nc(OC)c21)c1ccccc1
143 to 150 °C | COc1ccc(-n2nc3c4c([nH]cc-3c2=O)CCCCCCCC4)cc1
166 to 168 °C | CC(C)[C@H](NC(=O)OCc1ccccn1)C(=O)N[C@@H](Cc1ccccc1)[C@H](O)[C@H](O)[C@H](Cc1ccccc1)NC(=O)OCc1cccnc1
200 to 202 °C | CN(C)c1ccc(-c2cccc(-c3ccnc4c(C(=O)c5cccs5)cnn34)c2)cc1
110 to 111 °C | COC(=O)Cc1c(C(=O)OC)ccn1CCCl
251 to 252 °C | O=C(O)COc1cc2c(c(Cl)c1Cl)C(=O)C(c1ccccc1)(c1ccccc1)C2
